# According to paper PMC6934184, “Selective DNA-PKcs inhibition extends the therapeutic index of localized radiotherapy and chemotherapy” (The Journal of Clinical Investigation, 2019):
# Target: T1, KDR (VEGFR2) (Homo sapiens, UniProt P35968)
# T1 construct: purchased Thermo Fisher Scientific (Life Technologies) SelectScreen
# Experiment: SelectScreen Z'LYTE
# Format: biochemical
# Method in brief: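 SelectScreen broad panel; activity (Z'LYTE, Adapta) plus binding formats. ATP: Km app for CSF1R Z'LYTE; 10 for CAMK1 Adapta. Readout = % per kinase.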
# T1 sequence (P35968 20-1356): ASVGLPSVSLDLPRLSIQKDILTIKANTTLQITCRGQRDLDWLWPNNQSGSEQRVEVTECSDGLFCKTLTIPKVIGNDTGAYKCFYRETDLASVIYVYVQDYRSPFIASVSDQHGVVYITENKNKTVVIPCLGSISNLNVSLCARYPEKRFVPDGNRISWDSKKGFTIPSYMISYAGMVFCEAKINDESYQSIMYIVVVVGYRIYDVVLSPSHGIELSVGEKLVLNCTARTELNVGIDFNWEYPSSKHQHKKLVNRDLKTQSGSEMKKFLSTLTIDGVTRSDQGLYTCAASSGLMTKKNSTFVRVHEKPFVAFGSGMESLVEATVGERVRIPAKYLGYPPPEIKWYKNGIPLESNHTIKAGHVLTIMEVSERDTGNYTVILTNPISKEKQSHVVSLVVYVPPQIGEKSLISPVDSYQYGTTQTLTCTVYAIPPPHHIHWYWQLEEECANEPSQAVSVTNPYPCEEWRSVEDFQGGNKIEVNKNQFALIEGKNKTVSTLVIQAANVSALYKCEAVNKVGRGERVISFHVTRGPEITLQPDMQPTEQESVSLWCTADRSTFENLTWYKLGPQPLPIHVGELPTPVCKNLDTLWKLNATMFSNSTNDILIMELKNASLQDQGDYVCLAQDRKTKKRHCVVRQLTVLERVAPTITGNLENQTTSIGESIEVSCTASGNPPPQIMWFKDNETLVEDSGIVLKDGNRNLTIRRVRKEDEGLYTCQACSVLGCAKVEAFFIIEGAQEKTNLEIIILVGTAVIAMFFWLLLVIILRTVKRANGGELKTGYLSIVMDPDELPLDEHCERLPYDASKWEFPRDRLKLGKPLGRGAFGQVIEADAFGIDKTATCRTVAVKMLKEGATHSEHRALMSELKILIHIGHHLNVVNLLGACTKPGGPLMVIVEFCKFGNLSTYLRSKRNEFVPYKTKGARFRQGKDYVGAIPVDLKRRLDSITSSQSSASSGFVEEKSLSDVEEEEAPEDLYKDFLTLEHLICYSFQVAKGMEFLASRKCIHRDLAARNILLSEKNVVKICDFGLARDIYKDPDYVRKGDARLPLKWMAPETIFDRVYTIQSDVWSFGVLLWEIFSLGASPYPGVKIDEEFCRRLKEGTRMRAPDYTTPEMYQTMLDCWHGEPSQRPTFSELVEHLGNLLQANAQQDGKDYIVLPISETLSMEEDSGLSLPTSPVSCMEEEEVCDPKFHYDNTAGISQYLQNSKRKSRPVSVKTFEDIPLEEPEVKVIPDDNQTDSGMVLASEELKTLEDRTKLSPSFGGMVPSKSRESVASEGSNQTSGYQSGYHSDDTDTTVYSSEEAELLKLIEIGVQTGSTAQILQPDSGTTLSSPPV
structure (smiles),measurement,value
CN(C(=O)CN1CCOCC1)c1ccc2sc3c(-c4cccc5c(=O)cc(N6CC7CCC(C6)O7)oc45)cccc3c2c1 [NU5455],inhibition at 1 µM,1.8%
